In patent US12065445B2, “CDK2 inhibitors and methods of using the same” (Cedilla Therapeutics, Inc., priority 2021, dated 2024) one finds IC50 data, which are given here for 41 compounds.

Usually IC50 stands for the point on the concentration scale where inhibition reaches its midpoint.

The assay has as its system Kuramochi cells. Description: BrdU Cell Proliferation Assay. Format: cell-based. Conditions: read-out: BrdU - KURAMOCHI.1: IC50. The protocol: A BrdU assay was used as a measure of proliferation based on the DNA replication process of proliferating cells. BrdU, a pyrimidine analog, is added to the cell culture and incorporated into the DNA of proliferating cells. The presence of the BrdU analog was then measured through a colorimetric ELISA. After fixation and permeabilization of cells, peroxidase-conjugated antibody recognizing BrdU is added and allowed to incubate, followed by thorough washing to remove unbound antibody. In order to quantify the amount of bound antibody, peroxidase substrate is added and produces a color that can be measured at 450 nm.
On day −1, Kuramochi cells (Sekisui XenoTech JCRB0098) were seeded at 2,000 cells/well in columns 2-12 of a 96 well plate (Corning, CLS3596) in 150 μL media and allowed to adhere overnight at 37 degree with 5% CO2.
On day 0, the source plate was prepared by adding 10 mM compounds and performing 3-fold serial dilutions for a 10-point dose response of each compound. Using a multichannel pipette, 2 μL of the contents of the source plate were stamped into an intermediate plate with 500 μL of RPMI 1640 Media, GlutaMAX Supplement (Life Technologies, 61870127) in each well of a Nunc 96 DeepWell™ plate, non-treated 96 DeepWell plate, 2 mL/well, sterile, natural, 60/cs (Sigma Z717274) and mixed thoroughly. 50 μL from each well of this intermediate plate were added to 4 wells of a 96-well plate with previously seeded Kuramochi cells.
On day 4, the plates were developed using the BrdU ELISA Cell Proliferation Assay according to manufacturer's instructions (Roche, 11647229001). Briefly, BrdU was diluted 1:100 in Gibco®, OptiMEM® and 20 μL/well was added, shaken for 10 minutes at 350 rpm, and then returned to the incubator for 1 hour. Following incubation, the medium was discarded, and the cells were fixed by adding 200 μL of Fix/Denature solution. The anti-BrdU peroxidase antibody was diluted 1:1000 in OptiMEM, added at 100 μL/well, and incubated while shaking (350 rpm) for one hour. Three washes with PBS were performed to remove any unbound antibody, followed by the addition of 100 μL of substrate solution to each well. 25 μL/well of 1M sulfuric acid solution was then added to halt the reaction, and plates were read out using an Envision spectrophotometer (Perkin Elmer) set to read 450 nm absorbance. Background absorbance values from empty wells were subtracted from all samples and then normalized to DMSO treated wells.

Structures are written as SMILES.

Consider `CNC(=O)[C@@H](NC(=O)[C@@H]1CN(C(=O)c2cnn(Cc3ccccc3)c2)CC12CN(C(=O)C1(CCOC)CC1)C2)[C@@H](C)OCc1ccccc1` [I-102A], for which the IC50 is over 10 µM.

For `COCC1(NC(=O)[C@H]2CN(C(=O)c3cnn(Cc4ccccc4)c3)CC23CN(C(=O)[C@H]2CC2(C)C)C3)CC1` [I-250], the IC50 was over 10 µM.

As for `CNC(=O)[C@@H](NC(=O)[C@H]1CN(C(=O)c2cnn(CC3CCN(C)CC3)c2)CC12CN(C(=O)[C@H]1CC1(C)C)C2)[C@@H](C)OCc1ccccc1` [I-23B], the half-inhibitory concentration (IC50) was over 10 µM.

Consider `CNC(=O)[C@@H](NC(=O)[C@H]1CN(C(=O)c2cnn(Cc3ccccc3)c2)CC12CN(C(=O)C1(C(F)(F)F)CC1)C2)[C@@H](C)OCc1ccccc1` [I-108B], for which the IC50 is over 10 µM.

For the compound `CNC(=O)[C@@H](NC(=O)[C@H]1CN(C(=O)c2cnn(Cc3ccccc3)c2)CC12CN(C(=O)[C@H]1CC1(C)C)C2)[C@@H](C)OCC1CCCCCC1` [I-166B], the IC50 is 0.5 to 5 µM.

In the case of `C[C@@H](OCC1CCC(F)(F)CC1)[C@H](NC(=O)[C@@H]1CN(C(=O)c2cn[nH]c2)CC12CN(C(=O)C1(C(F)(F)F)CC1)C2)C(=O)N1CCC(F)(F)CC1` [I-188A], the IC50 is over 10 µM.

Turning to `CNC(=O)[C@H](COCc1ccccc1)NC(=O)[C@@H]1CN(C(=O)c2cnn(Cc3ccccc3)c2)CC12CN(C(=O)C1(C(F)(F)F)CC1)C2` [I-113A, (S)-6-(1-benzyl-1H-pyrazole-4-carbonyl)-N—((S)-3-(benzyloxy)-1-(methylamino)-1-oxopropan-2-yl)-2-(1-(trifluoromethyl)cyclopropane-1-carbonyl)-2,6-diazaspiro[3.4]octane-8-carboxamide], the IC50 is over 10 µM.

Turning to `CC1(C)C[C@@H]1C(=O)N1CC2(CN(C(=O)c3cnn(Cc4ccccc4)c3)C[C@H]2C(=O)NCc2nc3ccccc3o2)C1` [I-230], the IC50 is over 10 µM.

`CNC(=O)[C@@H](NC(=O)[C@@H]1CN(C(=O)c2cnn(Cc3ccccc3)c2)CC12CN(C(=O)[C@H]1CC1(C)C)C2)[C@@H](C)OCC(F)(F)F` [I-204]: the IC50 was over 10 µM.

As for `COc1cccc(CNC(=O)[C@@H]2CN(C(=O)c3cnn(Cc4ccccc4)c3)CC23CN(C(=O)[C@H]2CC2(C)C)C3)n1` [I-126A], the IC50 is over 10 µM.

`CC1(C)C[C@@H]1C(=O)N1CC2(CN(C(=O)c3cnn(Cc4ccccc4)c3)C[C@H]2C(=O)N[C@@H]2CCCN(C(=O)C3CCCCC3)C2)C1` [I-215]: the IC50 is over 10 µM.

Regarding `CNC(=O)[C@@H](NC(=O)[C@H]1CN(C(=O)c2cnco2)CC12CN(C(=O)[C@H]1CC1(C)C)C2)[C@@H](C)OCc1ccccc1` [I-39B], the 50% inhibitory concentration (IC50) is over 10 µM.

On to `CNC(=O)[C@@H](NC(=O)[C@H]1CN(C(=O)c2cnn(Cc3ccccc3)c2)CC12CN(C(=O)C1(CCOC)CC1)C2)[C@@H](C)OCc1ccccc1` [I-102B], for which the IC50 is over 10 µM.

Consider `COC(=O)C1(NC(=O)[C@@H]2CN(C(=O)c3cnn(Cc4ccccc4)c3)CC23CN(C(=O)[C@H]2CC2(C)C)C3)COC1` [I-142B], for which the 50% inhibitory concentration (IC50) was over 10 µM.

As to `CNC(=O)[C@@H](NC(=O)[C@@H]1CN(C(=O)c2cnn(Cc3ccccc3)c2)CC12CN(C(=O)C1C(C)(C)C1(C)C)C2)[C@@H](C)OCc1ccccc1` [I-89A], the IC50 is over 10 µM.

For `CNC(=O)[C@@H](NC(=O)[C@H]1CN(Cc2cncs2)CC12CN(C(=O)[C@H]1CC1(C)C)C2)[C@@H](C)OCc1ccccc1` [I-51B], the IC50 is over 10 µM.

Consider `C[C@@H](NC(=O)[C@H]1CN(C(=O)c2cnn(Cc3ccccc3)c2)CC12CN(C(=O)[C@H]1CC1(C)C)C2)c1cccc(F)c1` [I-128B], for which the IC50 was over 10 µM.

For `CNC(=O)[C@@H](NC(=O)[C@@H]1CN(C(=O)c2cnn(Cc3ccccc3)c2)CC12CN(C(=O)C1(C#N)CC1)C2)[C@@H](C)OCc1ccccc1` [I-73A], the IC50 is over 10 µM.

As to `C[C@@H](OCC1CCCCC1)[C@H](NC(=O)[C@H]1CN(C(=O)c2cnn(Cc3ccccc3)c2)CC12CN(C(=O)[C@H]1CC1(C)C)C2)C(=O)N1CCC(F)(F)CC1` [I-149B], the IC50 is over 10 µM.

As for `CNC(=O)[C@@H](NC(=O)[C@H]1CN(C(=O)c2cnn(CC3CCOCC3)c2)CC12CN(C(=O)[C@H]1CC1(C)C)C2)[C@@H](C)OCC1CCCCC1` [I-121B], the IC50 was over 10 µM.

`CNC(=O)[C@@H](NC(=O)[C@@H]1CN(C(=O)c2cnc(COC)s2)CC12CN(C(=O)[C@H]1CC1(C)C)C2)[C@@H](C)OCC1CCCCC1` [I-145A]: the IC50 lay within 0.5 to 5 µM.

In the case of `CNC(=O)[C@@H](NC(=O)[C@H]1CN(C(=O)c2cnn(Cc3ccccc3)c2)CC12CN(C(=O)C(C)(C)F)C2)[C@@H](C)OCc1ccccc1` [I-90B], the IC50 is over 10 µM.

Take `CNC(=O)[C@@H](NC(=O)[C@@H]1CN(CC2CCOCC2)CC12CN(C(=O)[C@H]1CC1(C)C)C2)[C@@H](C)OCc1ccccc1` [I-68A]: the IC50 was over 10 µM.

In the case of `CNC(=O)[C@@H](NC(=O)[C@@H]1CN(C(=O)c2cncs2)CC12CN(C(=O)C(C)(C)C)C2)[C@@H](C)OCC1CCCCC1` [I-186A], the IC50 lay within 0.5 to 5 µM.

As to `CC1(C)C[C@@H]1C(=O)N1CC2(CN(C(=O)c3cnn(Cc4ccccc4)c3)C[C@@H]2C(=O)N[C@H]2CCc3cc(Cl)ccc32)C1` [I-120B], the 50% inhibitory concentration (IC50) was over 10 µM.

For `CNC(=O)[C@H](CCCC1CCCCC1)NC(=O)[C@H]1CN(C(=O)c2cnn(Cc3ccccc3)c2)CC12CN(C(=O)[C@H]1CC1(C)C)C2` [I-155B], the concentration for half-maximal inhibition (IC50) is over 10 µM.

As to `C[C@@H]1C[C@H](C)CN(C(=O)[C@@H](NC(=O)C2CN(C(=O)c3cnn(Cc4ccccc4)c3)CC23CN(C(=O)[C@H]2CC2(C)C)C3)[C@@H](C)OCc2ccccc2)C1` (some centres unmarked) [I-22], the 50% inhibitory concentration (IC50) is 0.5 to 5 µM.

`CNC(=O)[C@@H](NC(=O)[C@@H]1CN(C(=O)c2cnn(Cc3ccccc3)c2)CC12CN(C(=O)C(C)C)C2)[C@@H](C)OCc1ccccc1` [I-54A]: the IC50 was over 10 µM.

As to `C[C@@H](OCC1CCCCC1)[C@H](NC(=O)[C@@H]1CN(C(=O)c2cnn(Cc3ccccc3)c2)CC12CN(C(=O)[C@H]1CC1(C)C)C2)C(=O)N1CCC[C@@H]1CN` [I-238], the IC50 was over 10 µM.

For `C[C@@H](OCC1CCCCC1)[C@H](NC(=O)[C@@H]1CN(C(=O)c2cnn(Cc3ccccc3)c2)CC12CN(C(=O)[C@H]1CC1(C)C)C2)C(=O)N1CCC[C@H]1CN` [I-220], the IC50 is over 10 µM.

As for `CNC(=O)[C@@H](NC(=O)[C@@H]1CN(C(=O)c2scnc2C2CC2)CC12CN(C(=O)[C@H]1CC1(C)C)C2)[C@@H](C)OCC1CCCCC1` [I-185A], the IC50 is over 10 µM.

Consider `CNC(=O)[C@@H](NC(=O)[C@@H]1CN(C(=O)c2cnn(Cc3ccccc3)c2)CC12CN(C(=O)[C@H]1CC1(C)C)C2)[C@@H](C)OCC1CCC1` [I-144A], for which the IC50 is over 10 µM.

Regarding `CNC(=O)[C@@H](NC(=O)[C@H]1CN(C(=O)c2cnn(Cc3ccc(F)cc3)c2)CC12CN(C(=O)[C@H]1CC1(C)C)C2)[C@@H](C)OCc1ccc(F)cc1` [I-136B], the IC50 is over 10 µM.

As to `CNC(=O)[C@@H](NC(=O)[C@@H]1CN(C(=O)c2cnn(Cc3ccccc3)c2)CC12CN(C(=O)CC(C)C)C2)[C@@H](C)OCc1ccccc1` [I-69A], the IC50 is over 10 µM.

Turning to `C[C@@H](OCC1CCCCC1)[C@H](NC(=O)[C@@H]1CN(C(=O)c2cnn(Cc3ccccc3)c2)CC12CN(C(=O)[C@H]1CC1(C)C)C2)C(=O)N1CC2(CNC2)C1` [I-240], the IC50 is over 10 µM.

In the case of `CNC(=O)[C@@H](NC(=O)[C@@H]1CN(C(=O)c2cncs2)CC12CN(C(=O)[C@H]1CC1(C)C)C2)[C@@H](C)OCc1ccccc1` [I-24A, (S)—N-((2S,3R)-3-(benzyloxy)-1-(methylamino)-1-oxobutan-2-yl)-2-((S)-2,2-dimethylcyclopropane-1-carbonyl)-6-(thiazole-5-carbonyl)-2,6-diazaspiro[3.4]octane-8-carboxamide], the IC50 is over 10 µM.

Consider `CNC(=O)[C@@H](NC(=O)[C@@H]1CN(C(=O)c2cncs2)CC12CN(C(=O)CC1CC1)C2)[C@@H](C)OCC1CCCCC1` [I-103A], for which the IC50 was over 10 µM.

For `CC1(C)C[C@@H]1C(=O)N1CC2(CN(C(=O)c3cnn(Cc4ccccc4)c3)C[C@@H]2C(=O)NC2CCCN(C(=O)c3ccccc3)C2)C1` (some centres unmarked) [I-59B], the IC50 is over 10 µM.

Consider `CC1(C)C[C@@H]1C(=O)N1CC2(CN(C(=O)c3cnn(Cc4ccccc4)c3)C[C@H]2C(=O)N2CCC(Cc3ccccc3)CC2)C1` [I-58A], for which the IC50 was over 10 µM.

Regarding `CC1(C)C[C@@H]1C(=O)N1CC2(CN(C(=O)c3cnn(Cc4ccccc4)c3)C[C@H]2C(=O)NC2CCCN(C(=O)c3ccccc3)C2)C1` (some centres unmarked) [I-59A], the IC50 was over 10 µM.

For `CNC(=O)[C@@H](NC(=O)C1CN(C(=O)c2cnn(Cc3ccccc3)c2)CC12CN(C(=O)C1CC1(C)C)C2)[C@@H](C)OCC1CCCCC1` (mixture of isomers) [I-12], the IC50 is 0.5 to 5 µM.
